#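 Compound exposure: 48 hours, 5 concentrations, 96-well plates. GI50: concentration for 50% inhibition of growth. Definition used: TGI = concentration required for complete inhibition of growth.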
# How the values were obtained:
# Test in all cases: NCI-60 cell line screen, 48 h
# [1] = test system: 786-0 renal
# [2] = test system: A498 renal
# [3] = test system: ACHN renal
# [4] = test system: BT-549 breast
# [5] = test system: CAKI-1 renal
# [6] = test system: CCRF-CEM leukemia
# [7] = test system: COLO 205 colon
# [8] = test system: EKVX NSCLC
# [9] = test system: HCC-2998 colon
# [10] = test system: HCT-116 colon
# [11] = test system: HCT-15 colon
# [12] = test system: HL-60(TB) leukemia
# [13] = test system: HOP-62 NSCLC
# [14] = test system: HS 578T breast
# [15] = test system: HT29 colon
# [16] = test system: IGROV1 ovarian
# [17] = test system: K-562 leukemia
# [18] = test system: KM12 colon
# [19] = test system: LOX IMVI melanoma
# [20] = test system: MCF7 breast
# [21] = test system: MDA-MB-231 breast
# [22] = test system: MOLT-4 leukemia
# [23] = test system: NCI-H226 lung
# [24] = test system: NCI-H23 lung
# [25] = test system: NCI-H522 lung
# [26] = test system: NCI/ADR-RES ovarian
# [27] = test system: OVCAR-3 ovarian
# [28] = test system: OVCAR-4 ovarian
# [29] = test system: OVCAR-5 ovarian
# [30] = test system: OVCAR-8 ovarian
# [31] = test system: RXF 393 renal
# [32] = test system: SF-268 CNS
# [33] = test system: SF-295 CNS
# [34] = test system: SF-539 CNS
# [35] = test system: SK-MEL-2 melanoma
# [36] = test system: SK-MEL-28 melanoma
# [37] = test system: SK-OV-3 ovarian
# [38] = test system: SNB-19 CNS
# [39] = test system: SNB-75 CNS
# [40] = test system: T-47D breast
# [41] = test system: TK-10 renal
# [42] = test system: U251 CNS
# [43] = test system: UACC-62 melanoma
# [44] = test system: UO-31 renal
# [45] = test system: A549 NSCLC
# [46] = test system: DU-145 prostate
# [47] = test system: HOP-92 NSCLC
# [48] = test system: M14 melanoma
# [49] = test system: MALME-3M melanoma
# [50] = test system: MDA-MB-435
# [51] = test system: PC-3 prostate
# [52] = test system: RPMI-8226 leukemia
# [53] = test system: SK-MEL-5 melanoma
# [54] = test system: SN12C renal
# [55] = test system: SW-620 colon
# [56] = test system: UACC-257 melanoma
smiles,measurement,setting,value
Cn1c2c(cc(S(=O)(=O)c3ccccc3)c1=O)CCc1c-2cnn1-c1ccc(Cl)cc1,GI50,[1],2490 nM
same,TGI,[1],5510 nM
same,GI50,[2],1060 nM
same,TGI,[2],5030 nM
same,GI50,[3],1980 nM
same,TGI,[3],3880 nM
same,GI50,[4],3030 nM
same,TGI,[4],7820 nM
same,GI50,[5],4360 nM
same,TGI,[5],> 100000 nM
same,GI50,[6],> 100000 nM
same,TGI,[6],> 100000 nM
same,GI50,[7],> 100000 nM
same,TGI,[7],> 100000 nM
same,GI50,[8],3620 nM
same,TGI,[8],31000 nM
same,GI50,[9],7310 nM
same,TGI,[9],> 100000 nM
same,GI50,[10],4140 nM
same,TGI,[10],> 100000 nM
same,GI50,[11],3020 nM
same,TGI,[11],> 100000 nM
same,GI50,[12],> 100000 nM
same,TGI,[12],> 100000 nM
same,GI50,[13],2930 nM
same,TGI,[13],7610 nM
same,GI50,[14],2720 nM
same,TGI,[14],7610 nM
same,GI50,[15],3310 nM
same,TGI,[15],> 100000 nM
same,GI50,[16],3220 nM
same,TGI,[16],> 100000 nM
same,GI50,[17],> 100000 nM
same,TGI,[17],> 100000 nM
same,GI50,[18],5120 nM
same,TGI,[18],> 100000 nM
same,GI50,[19],4090 nM
same,TGI,[19],17300 nM
same,GI50,[20],4590 nM
same,TGI,[20],> 100000 nM
same,GI50,[21],2240 nM
same,TGI,[21],5270 nM
same,GI50,[22],> 100000 nM
same,TGI,[22],> 100000 nM
same,GI50,[23],2220 nM
same,TGI,[23],4940 nM
same,GI50,[24],4650 nM
same,TGI,[24],> 100000 nM
same,GI50,[25],1780 nM
same,TGI,[25],4120 nM
same,GI50,[26],3090 nM
same,TGI,[26],8940 nM
same,GI50,[27],2450 nM
same,TGI,[27],5670 nM
same,GI50,[28],2500 nM
same,TGI,[28],6710 nM
same,GI50,[29],3370 nM
same,TGI,[29],> 100000 nM
same,GI50,[30],2730 nM
same,TGI,[30],6220 nM
same,GI50,[31],1900 nM
same,TGI,[31],3710 nM
same,GI50,[32],2240 nM
same,TGI,[32],5120 nM
same,GI50,[33],2090 nM
same,TGI,[33],5040 nM
same,GI50,[34],1870 nM
same,TGI,[34],3400 nM
same,GI50,[35],2560 nM
same,TGI,[35],5900 nM
same,GI50,[36],3240 nM
same,TGI,[36],13400 nM
same,GI50,[37],2340 nM
same,TGI,[37],5240 nM
same,GI50,[38],2010 nM
same,TGI,[38],4330 nM
same,GI50,[39],1930 nM
same,TGI,[39],4020 nM
same,GI50,[40],2060 nM
same,TGI,[40],5500 nM
same,GI50,[41],2260 nM
same,TGI,[41],5170 nM
same,GI50,[42],2100 nM
same,TGI,[42],3980 nM
same,GI50,[43],2350 nM
same,TGI,[43],5070 nM
same,GI50,[44],1870 nM
same,TGI,[44],6090 nM
CC(C)CC(CC1=CCC2CC1C2(C)C)C1=C(O)C(C)(C)C(=O)C(C)(C)C1=O (configuration not stated),GI50,[1],363 nM
same,TGI,[1],> 100000 nM
same,GI50,[2],236 nM
same,TGI,[2],651 nM
same,GI50,[45],359 nM
same,TGI,[45],> 100000 nM
same,GI50,[3],352 nM
same,TGI,[3],3580 nM
same,GI50,[4],413 nM
same,TGI,[4],4370 nM
same,GI50,[5],332 nM
same,TGI,[5],2290 nM
same,GI50,[6],353 nM
same,TGI,[6],3120 nM
same,GI50,[46],465 nM
same,TGI,[46],> 100000 nM
same,GI50,[8],330 nM
same,TGI,[8],> 100000 nM
same,GI50,[10],376 nM
same,TGI,[10],1460 nM
same,GI50,[11],350 nM
same,TGI,[11],5180 nM
same,GI50,[12],205 nM
same,TGI,[12],423 nM
same,GI50,[13],303 nM
same,TGI,[13],1140 nM
same,GI50,[47],191 nM
same,TGI,[47],499 nM
same,GI50,[14],366 nM
same,TGI,[14],3810 nM
same,GI50,[15],383 nM
same,TGI,[15],11200 nM
same,GI50,[16],500 nM
same,TGI,[16],> 100000 nM
same,GI50,[17],334 nM
same,TGI,[17],> 100000 nM
same,GI50,[18],328 nM
same,TGI,[18],2790 nM
same,GI50,[19],336 nM
same,TGI,[19],10700 nM
same,GI50,[48],404 nM
same,TGI,[48],5860 nM
same,GI50,[49],295 nM
same,TGI,[49],1130 nM
same,GI50,[20],303 nM
same,TGI,[20],> 100000 nM
same,GI50,[21],247 nM
same,TGI,[21],717 nM
same,GI50,[50],374 nM
same,TGI,[50],31800 nM
same,GI50,[22],343 nM
same,TGI,[22],1600 nM
same,GI50,[23],420 nM
same,TGI,[23],9460 nM
same,GI50,[24],321 nM
same,TGI,[24],1570 nM
same,GI50,[25],271 nM
same,TGI,[25],992 nM
same,GI50,[26],306 nM
same,TGI,[26],979 nM
same,GI50,[27],359 nM
same,TGI,[27],> 100000 nM
same,GI50,[28],486 nM
same,TGI,[28],> 100000 nM
same,GI50,[29],386 nM
same,TGI,[29],> 100000 nM
same,GI50,[30],379 nM
same,TGI,[30],> 100000 nM
same,GI50,[51],318 nM
same,TGI,[51],> 100000 nM
same,GI50,[52],227 nM
same,TGI,[52],558 nM
same,GI50,[31],434 nM
same,TGI,[31],3830 nM
same,GI50,[32],354 nM
same,TGI,[32],> 100000 nM
same,GI50,[33],285 nM
same,TGI,[33],942 nM
same,GI50,[34],357 nM
same,TGI,[34],> 100000 nM
same,GI50,[35],286 nM
same,TGI,[35],722 nM
same,GI50,[53],206 nM
same,TGI,[53],468 nM
same,GI50,[37],256 nM
same,TGI,[37],733 nM
same,GI50,[54],324 nM
same,TGI,[54],> 100000 nM
same,GI50,[38],375 nM
same,TGI,[38],> 100000 nM
same,GI50,[39],240 nM
same,TGI,[39],9670 nM
same,GI50,[55],400 nM
same,TGI,[55],> 100000 nM
same,GI50,[41],424 nM
same,TGI,[41],98900 nM
same,GI50,[42],335 nM
same,TGI,[42],> 100000 nM
same,GI50,[56],256 nM
same,TGI,[56],792 nM
same,GI50,[43],266 nM
same,TGI,[43],1170 nM
same,GI50,[44],272 nM
same,TGI,[44],2400 nM

# From PubChem BioAssay (NCI)
